# In patent US10676468B2, “N-(3-heteroarylaryl)-4-arylarylcarboxamides and analogs as hedgehog pathway inhibitors and use thereof” (IMPACT Therapeutics, Inc., priority 2012, dated 2020):
# pIC50: −log10 of the molar value.
# Legend:
# Assay type in all cases: cell-based, mouse
# [1] = tested on: Hedgehog Signaling Pathway; assay: SAG-induced differentiation of C3H10T1/2 cells into osteoblastic cells, intracellular alkaline phosphatase activity; conditions: 1 μM SAG, 5 days, alkaline phosphatase activity (OD405), read-out: IC50 values of compounds that inhibit Hh pathway
# Procedure, shortened: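 Mouse C3H10T1/2 cells were induced with SAG and exposed to compound (10 μM to 1 nM) for 5 days at 37 °C. Cells were lysed in 0.2% Triton, and alkaline phosphatase activity was read as OD405 over 30 min at 37 °C in pH 9.8 substrate buffer. IC50 came from a non-linear fit of background-subtracted OD405 against log concentration.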
# [2] = tested on: Hedgehog Signaling Pathway; assay: Gli-Luc reporter gene cell assay in C3H10T1/2/Gli-Luc cells stimulated with Shh; conditions: 30 nM Shh, luciferase activity (RLU), read-out: IC50 values of compounds that inhibit Hh pathway
# Procedure, shortened: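 IC50 from nonlinear fit of luciferase RLU versus log compound concentration. Stably transfected C3H10T1/2/Gli-Luc cells received a 7-point compound series alongside Shh (30 nM in the added medium) for 24 h at 37 °C in DMEM/10% FBS, then were lysed for luciferase readout.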
# [3] = tested on: Hedgehog Signaling Pathway; assay: SHH-induced differentiation of C3H10T1/2 cells into osteoblastic cells, intracellular alkaline phosphatase activity; conditions: 10 nM SHH-N, 5 days, alkaline phosphatase activity (OD405), read-out: IC50 values of compounds that inhibit Hh pathway
# Procedure, shortened: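 Hedgehog pathway inhibition was taken as loss of SHH-driven osteoblastic differentiation. Test compound (10 nM–10 μM) plus SHH-N (10 nM) was applied to C3H10T1/2 cells for 5 days, then lysate phosphatase turnover was measured as the 30-min OD405 change at 37 °C. IC50 was fitted from activity versus log dose.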
# [4] = Mus musculus, C3H 10T1/2, 120 h
"pIC50 [1, 4]","pIC50 ([2]; Mus musculus, C3H 10T1/2, 24 h)","pIC50 [3, 4]",pIC50 [1],pIC50 ([2]; 24 hours),pIC50 [3],SMILES
7.62,8.21,8.15,,,,"COc1ccc(-c2ccc(C(=O)Nc3ccc(Cl)c(-c4nc5ccccc5[nH]4)c3)c(C)c2)cn1 [Example 66, N-(3-(1H-benzo[d]imidazol-2-yl)-4-chlorophenyl)-2-methyl-4-(6-methoxypyridin-3-yl)benzamide]"
7.16,8.00,8.40,,,,"Cc1cc(-c2ccc(C(F)(F)F)cc2)ccc1C(=O)Nc1ccc(Cl)c(-c2ncc(-c3cccs3)[nH]2)c1 [Example 68, N-(3-(5-(thiophen-2-yl)-1H-imidazol-2-yl)-4-chlorophenyl)-3-methyl-4′-(trifluoromethyl)biphenyl-4-carboxamide]"
7.48,8.38,9.26,,,,"Cc1cc(-c2ccc(C(F)(F)F)cc2)ccc1C(=O)Nc1cnc(Cl)c(-c2nc3ccccc3[nH]2)c1 [Example 69, N-(5-(1H-benzo[d]imidazol-2-yl)-6-chloropyridin-3-yl)-3-methyl-4′-(trifluoromethyl)biphenyl-4-carboxamide]"
7.47,8.77,8.55,,,,"Cc1cc(-c2ccc(C#N)cc2)ccc1C(=O)Nc1cnc(Cl)c(-c2nc3ccccc3[nH]2)c1 [Example 70, N-(5-(1H-benzo[d]imidazol-2-yl)-6-chloropyridin-3-yl)-3-methyl-4′-cyanobiphenyl-4-carboxamide]"
6.74,8.15,8.44,,,,"Cc1cc(-c2ccc(C(F)(F)F)cc2)ccc1C(=O)Nc1cnc(C)c(-c2nc3ccccc3[nH]2)c1 [Example 71, N-(5-(1H-benzo[d]imidazol-2-yl)-6-methylpyridin-3-yl)-3-methyl-4′-(trifluoromethyl)biphenyl-4-carboxamide]"
6.86,8.15,8.72,,,,"Cc1ccc(-c2cnc(-c3cc(NC(=O)c4ccc(-c5ccc(C(F)(F)F)cc5)cc4C)ccc3Cl)[nH]2)cc1 [Example 77, N-(3-(5-p-tolyl-1H-imidazol-2-yl)-4-chlorophenyl)-3-methyl-4′-(trifluoromethyl)biphenyl-4-carboxamide]"
6.78,7.82,8.32,,,,"Cc1cc(-c2ccc(C(F)(F)F)cc2)ccc1C(=O)Nc1ccc(Cl)c(-c2ncc(-c3ccc(F)cc3)[nH]2)c1 [Example 78, N-(3-(5-(4-fluorophenyl)-1H-imidazol-2-yl)-4-chlorophenyl)-3-methyl-4′-(trifluoromethyl)biphenyl-4-carboxamide]"
7.00,8.18,8.57,,,,"Cc1cc(-c2ccc(C(F)(F)F)cc2)ccc1C(=O)Nc1ccc(Cl)c(-c2ncc(-c3ccco3)[nH]2)c1 [Example 79, N-(3-(5-(furan-2-yl)-1H-imidazol-2-yl)-4-chlorophenyl)-3-methyl-4′-(trifluoromethyl)biphenyl-4-carboxamide]"
7.55,8.74,8.57,,,,"Cc1ccc(-c2cnc(-c3cc(NC(=O)c4ccc(N5C[C@@H](C)O[C@@H](C)C5)cc4C)ccc3Cl)[nH]2)cc1 [Example 80, N-(3-(5-p-tolyl-1H-imidazol-2-yl)-4-chlorophenyl)-2-methyl-4-((2S,6R)-2,6-dimethylmorpholino)benzamide]"
8.19,9.82,9.80,,,,"Cc1cc(N2C[C@@H](C)N(C)[C@@H](C)C2)ccc1C(=O)Nc1ccc(Cl)c(-c2ncc(-c3cccs3)[nH]2)c1 [Example 81, N-(3-(5-(thiophen-2-yl)-1H-imidazol-2-yl)-4-chlorophenyl)-2-methyl-4-((3S,5R)-3,4,5-trimethylpiperazin-1-yl)benzamide]"
7.92,9.80,9.68,,,,"C[C@@H]1CN(c2ccc(C(=O)Nc3ccc(Cl)c(-c4ncc(-c5cccs5)[nH]4)c3)c(Cl)c2)C[C@H](C)N1C [Example 82, N-(3-(5-(thiophen-2-yl)-1H-imidazol-2-yl)-4-chlorophenyl)-2-chloro-4-((3S,5R)-3,4,5-trimethylpiperazin-1-yl)benzamide]"
7.37,8.20,8.04,,,,"Cc1cc(N2C[C@@H](C)O[C@@H](C)C2)ccc1C(=O)Nc1cnc(Cl)c(-c2nc3ccccc3[nH]2)c1 [Example 83, N-(5-(1H-benzo[d]imidazol-2-yl)-6-chloropyridin-3-yl)-2-methyl-4-((2S,6R)-2,6-dimethylmorpholino)benzamide]"
7.36,8.00,8.15,,,,"Cc1nc(N2C[C@@H](C)O[C@@H](C)C2)ccc1C(=O)Nc1cnc(Cl)c(-c2nc3ccccc3[nH]2)c1 [Example 84, N-(5-(1H-benzo[d]imidazol-2-yl)-6-chloropyridin-3-yl)-2-methyl-6-((2S,6R)-2,6-dimethylmorpholino)nicotinamide]"
7.31,8.15,8.25,,,,"Cc1cc(N2C[C@@H](C)O[C@@H](C)C2)ncc1C(=O)Nc1cnc(Cl)c(-c2nc3ccccc3[nH]2)c1 [Example 85, N-(5-(1H-benzo[d]imidazol-2-yl)-6-chloropyridin-3-yl)-4-methyl-6-((2S,6R)-2,6-dimethylmorpholino)nicotinamide]"
7.40,9.03,8.77,,,,"C[C@@H]1CN(c2ccc(C(=O)Nc3cnc(Cl)c(-c4nc5ccccc5[nH]4)c3)cn2)C[C@H](C)N1C [Example 86, N-(5-(1H-benzo[d]imidazol-2-yl)-6-chloropyridin-3-yl)-6-((3S,5R)-3,4,5-trimethylpiperazin-1-yl)nicotinamide]"
,,,7.68,9.28,8.77,Cc1cc(N2C[C@@H](C)N(C)[C@@H](C)C2)ccc1C(=O)Nc1cnc(Cl)c(-c2nc3ccccc3[nH]2)c1 [Example 87]
6.92,8.17,7.96,,,,"Cc1cc(N2C[C@@H](C)N(C)[C@@H](C)C2)ccc1C(=O)Nc1cnc(C)c(-c2nc3ccccc3[nH]2)c1 [Example 88, N-(5-(1H-benzo[d]imidazol-2-yl)-6-methylpyridin-3-yl)-2-methyl-4-((3S,5R)-3,4,5-trimethylpiperazin-1-yl)benzamide]"
6.42,7.68,7.26,,,,"Cc1cc(C(=O)Nc2cnc(C)c(-c3nc4ccccc4[nH]3)c2)ccc1N1C[C@@H](C)N(C)[C@@H](C)C1 [Example 89, N-(5-(1H-benzo[d]imidazol-2-yl)-6-methylpyridin-3-yl)-3-methyl-4-((3S,5R)-3,4,5-trimethylpiperazin-1-yl)benzamide]"
6.34,7.60,7.46,,,,"Cc1ncc(NC(=O)c2ccc(N3C[C@@H](C)N(C)[C@@H](C)C3)nc2)cc1-c1nc2ccccc2[nH]1 [Example 90, N-(5-(1H-benzo[d]imidazol-2-yl)-6-methylpyridin-3-yl)-6-((3S,5R)-3,4,5-trimethylpiperazin-1-yl)nicotinamide]"
7.28,8.11,8.17,,,,"Cc1cc(N2C[C@@H](C)O[C@@H](C)C2)ncc1C(=O)Nc1ccc(Cl)c(-c2nc3ccccc3[nH]2)c1 [Example 91, N-(3-(1H-benzo[d]imidazol-2-yl)-4-chlorophenyl)-4-methyl-6-((2S,6R)-2,6-dimethylmorpholino)nicotinamide]"
7.49,9.30,9.16,,,,"Cc1cc(N2C[C@@H](C)N(C)[C@@H](C)C2)ccc1C(=O)Nc1ccc(Cl)c(-c2nc3ccccc3[nH]2)c1 [Example 93, N-(3-(1H-benzo[d]imidazol-2-yl)-4-chlorophenyl)-2-methyl-4-((3S,5R)-3,4,5-trimethylpiperazin-1-yl)benzamide]"
7.80,9.20,9.09,,,,"C[C@@H]1CN(c2ccc(C(=O)Nc3ccc(Cl)c(-c4nc5ccccc5[nH]4)c3)c(Cl)c2)C[C@H](C)N1C [Example 94, N-(3-(1H-benzo[d]imidazol-2-yl)-4-chlorophenyl)-2-chloro-4-((3S,5R)-3,4,5-trimethylpiperazin-1-yl)benzamide]"
6.95,8.48,7.89,,,,"C[C@@H]1CN(c2ccc(C(=O)Nc3ccc(Cl)c(-c4nc5ccccc5[nH]4)c3)c(F)c2)C[C@H](C)N1C [Example 95, N-(3-(1H-benzo[d]imidazol-2-yl)-4-chlorophenyl)-2-fluoro-4-((3S,5R)-3,4,5-trimethylpiperazin-1-yl)benzamide]"
6.97,8.48,8.30,,,,"C[C@@H]1CN(c2ccc(C(=O)Nc3ccc(Cl)c(-c4nc5ccc(Cl)cc5[nH]4)c3)c(Cl)c2)C[C@H](C)N1C [Example 96, N-(3-(6-chloro-1H-benzo[d]imidazol-2-yl)-4-chlorophenyl)-2-chloro-4-((3S,5R)-3,4,5-trimethylpiperazin-1-yl)benzamide]"
